Results: BigSolDB 2.1

NCCCCCC(=O)O
solubility (mole fraction)
Conditions	283.15 K	288.15 K	293.15 K	298.15 K	303.15 K	308.15 K	313.15 K	318.15 K	323.15 K
in ethyl acetate	0.000146	0.00016	0.000174	0.000188	0.0002	0.000221	0.000241	0.000262	0.000289
in isopropanol	7.7e-05	8.1e-05	9.2e-05	0.000108	0.000123	0.000142	0.000162	0.000181	0.0002
in methyl acetate	0.000119	0.000129	0.00014	0.000146	0.000154	0.000161	0.000166	0.00017	0.000172
in water	0.118	0.126	0.13	0.137	0.145	0.152	0.155	0.16	0.167
